Values joined by “and” are separate entries in the source; they are usually repeats but may differ in a detail not shown here. Identical values can stand only once.
Tests used:
[1] = Preclinical pharmacokinetics in monkeys; conditions: cynomolgus monkey, in vivo, iv, 5 mg/kg
APP/PS1 transgenic mice = test: Tonic GABA current, neuronal firing and DAO compensation in APP/PS1 mice; format: in vivo, mouse
[2] = Preclinical pharmacokinetics in monkeys; format: in vivo, Cynomolgus monkey; conditions: for AUC(0-t) / Vd/F / Tmax / AUC(0-inf) / CL/F / half-life: cynomolgus monkey, in vivo
Description: In a pharmacokinetic study, plasma PK parameters were measured after a single oral administration of […]
dose group and at 4 to 6 hours after administration in the 30 mg/kg dose group. In the elimination phase, the […]
Systemic exposure (AUClast) to the test substance was 30587 and 80770 ng*hr/mL, respectively. […]

in vivo = conditions: both, cynomolgus monkey, po
[3] = Phase 1 clinical trial: treatment-emergent adverse events; format: in vivo, human
Description: Eligibility criteria included healthy adults (aged 19–45) for the SAD and MAD cohorts, and healthy elderly subjects (aged 65–85) for cohort 11. The participants were excluded if they met the following criteria: serum AST or ALT greater than 60 IU/L, total bilirubin greater than 1.8 mg/dL, creatinine phosphokinase (CPK) levels greater than 405 IU/L, creatinine clearance calculated by the Chronic Kidney Disease Epidemiology Collaboration (CKD-EPI) equation less than 60 mL/min/1.73 m². At the time of randomization, all subjects were required to be free from any clinically significant medical conditions. The study was approved by the Seoul National University Hospital institutional review board and conducted in accordance with the Declaration of Helsinki and Good Clinical Practice guidelines.
Subjects who met the eligibility criteria were admitted to the Seoul National University Hospital Clinical Trial Center one day prior to the first dose administration. […] After administration of the last dose, subjects were discharged 72 h later and visited the outpatient clinic for follow-up on three consecutive days. Pharmacokinetics and safety were monitored until the end of the study, lasting up to 18 days after the last dose.
The primary endpoint was the incidence of TEAEs by dose group. […] Those deemed to have a causal relationship with the drug were classified as ADRs. Dose escalation proceeded under blinded conditions, contingent on the absence of dose-limiting toxicity, as reviewed by a safety review committee.

[4] = MAD, healthy elderly, Cohort 11, 120 mg, n = 6
[5] = MAD, young healthy adults, Cohort 7, 60 mg, n = 6
[6] = MAD, young healthy adults, Cohort 8, 120 mg, n = 6
[7] = MAD, young healthy adults, Cohort 9, 240 mg, n = 6
[8] = MAD, young healthy adults, Cohort 10, 480 mg, n = 6
[9] = SAD, young healthy adults, Cohort 1, 30 mg, n = 6
[10] = SAD, young healthy adults, Cohort 2, 60 mg, n = 6
[11] = SAD, young healthy adults, Cohort 3, 120 mg, fasting, n = 6
[12] = SAD, young healthy adults, Cohort 3, 120 mg, fed, n = 5
[13] = SAD, young healthy adults, Cohort 4, 240 mg, n = 6
[14] = SAD, young healthy adults, Cohort 5, 480 mg, n = 6
[15] = SAD, young healthy adults, Cohort 6, 960 mg, n = 6

## CS(=O)(=O)O.C[C@H](NCc1ccc(-c2ccc(C(F)(F)F)cc2)cc1)C(N)=O [KDS2010, (S)-2-(((4’-Trifluoromethylbiphenyl-4-yl)methyl)amino)propanamide methane-sulfonate]
[1]
  AUC(0-inf): 17900 ± 2460 ng·h/mL
[1]; t1/2
  half-life: 8.65 ± 0.97 h
APP/PS1 transgenic mice; 1 mg/kg and 10 mg/kg vs induced control group
  tonic GABA current in granule cells of the dentate gyrus: dose-dependent reduction
APP/PS1 transgenic mice; 4-week repeated dosing test, at 2 weeks and 4 weeks
  neuronal firing: maintained at a level similar to that of the normal group
APP/PS1 transgenic mice; long-term administration
  DAO (diamine oxidase) compensatory mechanism: did not induce
[2]
  AUC(0-t): ~13000 ng·h/mL
[2]; iv, 5 mg/kg
  Vd/F: 3.714 ± 0.609 L/kg
[2]; cynomolgus monkeys
  increase in the AUC, 30 mg/kg vs 10 mg/kg: 5 fold and ~ 4.6 fold
[2]; male monkeys, 10 and 30 mg/kg
  increase rate of Cmax vs dose: slightly lower
[2]; male
  Tmax: 2 to 6 h
[2]; male, po, 10 mg/kg
  AUC(0-inf): 43600 ng·h/mL
  CL/F: 3.8 mL/min/kg
  Vd/F: 4.49 ± 0.61 L/kg
[2]; male, po, 10 mg/kg, t1/2
  half-life: 13.7 ± 0.48 h
[2]; male, po, 30 mg/kg
  AUC(0-inf): 202000 ± 76800 ng·h/mL
  CL/F: 2.58 mL/min/kg
  Vd/F: 6.27 ± 1.67 L/kg
[2]; male, po, 30 mg/kg, t1/2
  half-life: 16.9 h
[2]; male, cynomolgus, po, 10 mg/kg
  AUC(0-inf): 43600 ng·h/mL
  AUC(0-t): 30600 ng·h/mL
  Tmax: 2 h
[2]; male, cynomolgus, po, 10 mg/kg, mean half-life (t1/2)
  half-life: 13.7 h
[2]; male, cynomolgus, po, 10 mg/kg, t1/2
  half-life: 13.7 h
[2]; male, cynomolgus, po, 30 mg/kg
  AUC(0-inf): ~202000 ng·h/mL
  AUC(0-t): 80800 ng·h/mL
  Tmax: 4 to 6 h
[2]; male, cynomolgus, po, 30 mg/kg, mean half-life (t1/2)
  half-life: 31.1 h
[2]; male, cynomolgus, po, 30 mg/kg, t1/2
  half-life: ~31.1 h
In vivo
  NOAEL at 4 weeks: 40 mg/kg
[3]; 120 mg
  effect of a high-fat meal on the frequency of TEAEs: did not affect
[3]; [4]
  TEAE: Abdominal discomfort: 2 (33.3) number of subjects (%)
  TEAE: Constipation: 2 (33.3) number of subjects (%)
  TEAE: Diarrhea: 2 (33.3) number of subjects (%)
  TEAE: Dizziness: 1 (16.7) number of subjects (%)
  TEAE: Hematocrit decreased: 2 (33.3) number of subjects (%)
  TEAE: Red blood cell count decreased: 1 (16.7) number of subjects (%)
  TEAEs: Any: 5 (83.3) number of subjects (%)
  TEAEs: Serious: 0 number of subjects (%)
[3]; [5]
  TEAE: Cough: 1 (16.7) number of subjects (%)
  TEAE: Rhinorrhoea: 1 (16.7) number of subjects (%)
  TEAEs: Any: 2 (33.3) number of subjects (%)
  TEAEs: Serious: 0 number of subjects (%)
[3]; [6]
  TEAEs: Any: 0 number of subjects (%)
  TEAEs: Serious: 0 number of subjects (%)
[3]; [7]
  TEAE: Hypersomnia: 1 (16.7) number of subjects (%)
  TEAEs: Any: 1 (16.7) number of subjects (%)
  TEAEs: Serious: 0 number of subjects (%)
[3]; [8]
  TEAE: Conjunctival hyperemia: 1 (16.7) number of subjects (%)
  TEAE: Oropharyngeal pain: 1 (16.7) number of subjects (%)
  TEAEs: Any: 2 (33.3) number of subjects (%)
  TEAEs: Serious: 0 number of subjects (%)
[3]; [9]
  TEAEs: Any: 2 (33.3) number of subjects (%)
  TEAEs: Serious: 0 number of subjects (%)
[3]; [10]
  TEAE: Cough: 1 (16.7) number of subjects (%)
  TEAE: Oropharyngeal pain: 1 (16.7) number of subjects (%)
  TEAEs: Any: 1 (16.7) number of subjects (%)
  TEAEs: Serious: 0 number of subjects (%)
[3]; [11]
  TEAE: Neutrophil count increased: 1 (16.7) number of subjects (%)
  TEAEs: Any: 3 (50.0) number of subjects (%)
  TEAEs: Serious: 0 number of subjects (%)
[3]; [12]
  TEAE: Neutrophil count increased: 2 (40.0) number of subjects (%)
  TEAEs: Any: 3 (60.0) number of subjects (%)
  TEAEs: Serious: 0 number of subjects (%)
[3]; [13]
  TEAE: Dry eye: 1 (16.7) number of subjects (%)
  TEAE: Neutrophil count increased: 1 (16.7) number of subjects (%)
  TEAE: Ocular discomfort: 1 (16.7) number of subjects (%)
  TEAE: Swelling of the eyelid: 1 (16.7) number of subjects (%)
  TEAE: White blood cell count increased: 1 (16.7) number of subjects (%)
  TEAEs: Any: 2 (33.3) number of subjects (%)
  TEAEs: Serious: 0 number of subjects (%)
[3]; [14]
  TEAE: Nasal congestion: 1 (16.7) number of subjects (%)
  TEAE: Rhinorrhoea: 1 (16.7) number of subjects (%)
  TEAEs: Any: 2 (33.3) number of subjects (%)
  TEAEs: Serious: 0 number of subjects (%)
[3]; [15]
  TEAE: Conjunctival hyperemia: 1 (16.7) number of subjects (%)
  TEAE: Dizziness: 1 (16.7) number of subjects (%)
  TEAE: Dry eye: 1 (16.7) number of subjects (%)
  TEAE: Nasal congestion: 2 (33.3) number of subjects (%)
  TEAE: Rhinorrhoea: 1 (16.7) number of subjects (%)
  TEAE: Somnolence: 2 (33.3) number of subjects (%)
  TEAEs: Any: 4 (66.7) number of subjects (%)
  TEAEs: Serious: 0 number of subjects (%)
[3]; all subjects on KDS2010
  number of TEAEs: 56 TEAEs
  number of subjects with TEAEs: 25 subjects
  proportion of subjects with TEAEs: 37.9%
[3]; higher doses (240–960 mg)
  autonomic nervous system TEAEs: TEAEs related to the autonomic nervous system were observed
[3]; phase 1
  incidence of TEAEs vs dose: tended to increase with dose
[3]; phase 1, all cohorts
  serious adverse events: no serious adverse events

From paper PMC12423301, “Astrocytic monoamine oxidase B (MAOB)–gamma-aminobutyric acid (GABA) axis as a molecular brake on repair following spinal cord injury” (Signal Transduction and Targeted Therapy, 2025)
